Test results published in patent US4450269A, “Mono-5-substituted-3-chloro-4H-1,2,6-thiadiazin-4-one antifungal agents” (FMC Corporation, priority 1980, dated 1984).
Where two headings read alike, the source gives them in different places.

Experiments:
Pyricularia oryzae [1] = experiment: whole plant or invertebrate; format: in vivo; settings: for pest or weed control at 150 ppm: Pyricularia oryzae, foliar, 24 h, read-out: Percent Disease Control, curative, rice blast, 150 ppm, 24 hours after inoculation
Pyricularia oryzae [2] = format: cell-based; settings: PO, 48 hours
Fusarium solani = experiment: Mycelial growth test; format: cell-based; settings: for inhibition at 5 ppm / inhibition at 10 ppm / inhibition at 20 ppm / inhibition at 40 ppm: Fusarium solani, 72 h; for inhibition at 5 ppm / inhibition at 10 ppm / inhibition at 20 ppm: read-out: Percent Fungus Growth Inhibition; for inhibition at 40 ppm: read-out: Percent Fungus Growth Inhibition, PS, 40 ppm, 72 hours

Structure (SMILES)	pest or weed control at 150 ppm (Pyricularia oryzae [1])	Spore Germination Rating (Pyricularia oryzae [2]; 1.0 ppm)	Spore Germination Rating (Pyricularia oryzae [2]; 2.5 ppm)	Spore Germination Rating (Pyricularia oryzae [2]; 10 ppm)	Spore Germination Rating (Pyricularia oryzae [2]; 40 ppm)	inhibition at 5 ppm (Fusarium solani; PS, 72 hours)	inhibition at 10 ppm (Fusarium solani; PS, 10 ppm, 72 hours)	inhibition at 20 ppm (Fusarium solani; PS, 72 hours)	inhibition at 40 ppm (Fusarium solani)	Percent Disease Control, curative, rice blast (Pyricularia oryzae [1]; 150 ppm, 24 hours after inoculation)	Percent Fungus Growth Inhibition (Fusarium solani; PS, 10 ppm, 72 hours)
Cc1cccc(Oc2nsnc(Cl)c2=O)c1 [Compound 21, 3-chloro-5-(3-methylphenoxy)-4H--1,2,6-thiadiazin-4-one]	85%	4 (80-100)	0 (0-10)	0 (0-10)	0 (0-10)	33%	62%	58%	100%		
O=c1c(Cl)nsnc1Oc1ccc(Cl)cc1 [Compound 12, 3-chloro-5-(4-chlorophenoxy)-4H--1,2,6-thiadiazin-4-one]	75%	0 (0-10)	0 (0-10)	0 (0-10)	0 (0-10)	71%	59%	65%	100%		
CC(=O)c1cccc(Oc2nsnc(Cl)c2=O)c1 [Compound 48, 3-(3-acetylphenoxy)-5-chloro-4H--1,2,6-thiadiazin-4-one]	50%	3 (60-80)	1 (10-40)	0 (0-10)	0 (0-10)	38%	50%	100%	100%		
CC(=O)c1ccccc1Oc1nsnc(Cl)c1=O [Compound 49, 3-(2-acetylphenoxy)-5-chloro-4H--1,2,6-thiadiazin-4-one]	0%	2 (40-60)	1 (10-40)	0 (0-10)	0 (0-10)	0%	7%	34%	67%		
Cc1ccc(Oc2nsnc(Cl)c2=O)c(Br)c1 [Compound 57, 3-[(2-bromo-4-methyl)-phenoxy]-5-chloro-4H--1,2,6-thiadiazin-4-one]	0%	0 (0-10)	2 (40-60)	0 (0-10)	0 (0-10)	88%	100%	100%	100%		
Cc1cc(Oc2nsnc(Cl)c2=O)cc(C)c1Br [Compound 60, 3-[(4-bromo-3,5-dimethyl)-phenoxy]-5-chloro-4H--1,2,6-thiadiazin-4-one]	0%	0 (0-10)	0 (0-10)	0 (0-10)	0 (0-10)	63%	50%	56%	75%		
Nc1ccc(Oc2nsnc(Cl)c2=O)cc1 [Compound 26, 5-(4-aminophenoxy)-3-chloro-4H--1,2,6-thiadiazin-4-one]		4 (80-100)	2 (40-60)	0 (0-10)	0 (0-10)	13%		17%	42%	0%	33%
O=c1c(Cl)nsnc1Oc1c(Cl)c(Cl)c(Cl)c(Cl)c1Cl [Compound 31, 3-chloro-5-(pentachlorophenoxy)-4H--1,2,6-thiadiazine-4-one]	0%	0 (0-10)	0 (0-10)	0 (0-10)	0 (0-10)	42%	42%	58%	58%		
O=c1c(Cl)nsnc1Oc1ccc(Br)cc1 [Compound 15, 3-chloro-5-(4-bromophenoxy)-4H--1,2,6-thiadiazin-4-one]	95%	0 (0-10)	1 (10-40)	0 (0-10)	0 (0-10)	0%	42%	42%	83%		
